This note sets out measurements from US11040066B2, “Topical composition for use in the treatment of burns” (Safeguard Medical Holdco, LLC, priority 2017, dated 2021).

The series is described as follows: Gamma radiation resistance of gel formulas (Rounds 1-5). The series is classed as physicochemical. The settings on record: Round 1; summary in words. From the text: Following several failed attempts to formulate a composition with suitable viscosity and other properties to function as a burn treatment, the Inventors obtained stable compositions which were sent for testing to assess stability under gamma radiation.
OVERVIEW: To incorporate: Polyaminopropyl biguanide (INCI name); Chemical name: Polyhexamethylene Biguanide Hydrochloride (PHMB) and later Oriel sea mineral complex into a gel formula that can withstand the impact of gamma radiation sterilisation.
5 rounds of formulas were sent out for gamma radiations as outlined below.
Round 1 Summary: Started with our current BD (Burn Dressing) Gel with hyaluronic acid (HA) formula to which various ingredients were added.
Carbopol is the thickening agent used in BD Gel with HA, the only experiment in round 1 to which PHMB was added.
Round 2 Summary: Since PHMB was incompatible with Carbopol, new formulas containing various other thickeners were tried. Since propylene glycol, a humectant helped, another humectant (propanediol) was tried. For all the experimental batches made, only the stable formulas were sent out for gamma radiation. Only some of round 2 formulas contain PHMB (20% solution) @0.2% […]
In round 5, the final formula was determined from a selection of which were sent out for gamma radiation with acceptable results. […]

For the molecule `CC(O)CO` (stereo not shown) [propylene glycol, 1,2-Propanediol], the “Change following gamma radiation” value is recorded as “little or no change”.
